Article PMC6332173, “Diterpenoids from Saliva plebeia R. Br. and Their Antioxidant and Anti-Inflammatory Activities” (Molecules, 2015)

What was measured:
[1] = DPPH radical scavenging assay; details: for DPPH radical scavenging rate: 30 min, absorbance 517 nm
Description: DPPH radical assay: DPPH radical scavenging assay was performed according to previous protocol with modifications. DPPH was dissolved in ethanol at the concentration of 200 µM. One hundred microliters of compounds (5, 10, 20, 30, 50 µM) were added to the 96-well plates, and evaded the light preservation for 30 min after addition 100 µL DPPH. Then the absorbance was measured at 517 nm using Thermo Scientific Varioskan Flash. Vitamin C was used as the positive control. The inhibitory effect was expressed as scavenging rate of alleviation and was calculated as follows: Scavenging rate (%) = [1 − (A1 − A2)/A0] × 100 (1) A1 refers to the absorbance with various concentrations of test compounds and DPPH, A2 refers to the absorbance with various concentrations of test compounds and ethanol, A0 refers to the absorbance with distilled water and DPPH.

[2] = tested on: intracellular ROS production in LPS-stimulated RAW 264.7 macrophages; experiment: Intracellular ROS assay in LPS-stimulated RAW 264.7 macrophages (DCFH-DA); assay type: cell-based, murine; details: Mus musculus, RAW264.7, LPS 1 μg/mL, 6 h, mean ± SD, n=3, read-out: Intracellular ROS Inhibition Rate (%)
Description: Intracellular ROS assay: Intracellular ROS assay was performed according to the method reported previously. RAW 264.7, a murine macrophage cell line, was obtained from the Pharmacognosy Laboratory of Prof. Mian Zhang, China Pharmaceutical University. Cells were cultured in DMEM containing 10% fetal bovine serum, 100 U/mL penicillin and 100 U/mL streptomycin at 37 °C in a humidified atmosphere containing 5% CO2 and 95% air. The cells (1 × 10^5 cells/well) were pre-incubated in the 96-well plate for 12 h. Then, cells were cultured in normal medium as normal group, or 1 μg/mL LPS as control group, or 1 μg/mL LPS plus different concentration of compounds as test group. After the cells of each group were treated for 6 h, the medium was removed, and the cells were incubated with 50 μL 2,7-Dichlorofluorescein diacetate (DCFH-DA) (10 μM) for 20 min at 37 °C. After that, the cells were washed with PBS carefully three times to remove free DCFH-DA. The absorbance was determined at 525 nm using Thermo Scientific Varioskan Flash. Apocynin was used as the positive control. The inhibitory rate (%) was calculated according to the equation: Inhibition rate (%) = [1 − (B1 − B0)/(B2 − B0)] × 100 (2) B1 refers to the absorbance of […], B0 refers to the absorbance of normal group.

[3] = tested on: NO production in LPS-stimulated RAW 264.7 macrophages; experiment: NO production in LPS-stimulated RAW 264.7 macrophages (Griess reaction); assay type: cell-based, murine; details: Mus musculus, RAW264.7; for inhibition at 3 µM / inhibition at 10 µM / inhibition at 30 µM / inhibition at 100 µM: LPS 1 μg/mL, 24 h, mean ± SD, n=3, read-out: NO Inhibition Rate (%); for IC50: LPS-induced RAW 264.7 macrophages, read-out: IC50 of NO production inhibition
RAW 264.7 macrophages = assay type: cell-based, murine; details: mouse, 24 h, 100 µM
Description: The MTT assay was used to evaluate the cell viability, as previously reported. RAW 264.7 macrophages were seeded at a density of 1 × 10^5 cells /mL in 96-well plates and cultured for 24 h with the test compound (100 µM) at 37 °C in a 5% CO2 incubator. Subsequently, 20 μL of MTT solution (5 mg/mL) was added to each well and incubated for 4 h at 37 °C and the resulted crystals were dissolved in DMSO. The optical density was measured at 490 nm using Thermo Scientific Varioskan Flash.

IC50 [1] [µM]	IC50 [3] [µM]	melting point [°C]	SMILES	DPPH radical scavenging rate ([1]; 5 µM compound) [%]	DPPH radical scavenging rate ([1]; 10 µM compound) [%]	DPPH radical scavenging rate ([1]; 20 µM compound) [%]	DPPH radical scavenging rate ([1]; 30 µM compound) [%]	DPPH radical scavenging rate ([1]; 50 µM compound) [%]	inhibition at 10 µM [2] [%]	inhibition at 30 µM [2] [%]	inhibition at 100 µM [2] [%]	inhibition at 3 µM [3] [%]	inhibition at 10 µM [3] [%]	inhibition at 30 µM [3] [%]	inhibition at 100 µM [3] [%]	Cell Viability (% vs. Control) (RAW 264.7 macrophages) [%]
> 50	23.6		CC(C)c1cc(O)c2c(c1O)[C@@H]1CC3C(C)(C)CCC[C@]23C(=O)O1 (stereo partly drawn) [Compound 3, isocarnosol]	3.4 ± 2.3	11.5 ± 2.4	24.5 ± 1.2	42.6 ± 6.0	49.0 ± 1.1	13.5 ± 1.1	16 ± 1.9	22 ± 1.8	18.8 ± 3	29.9 ± 5	59.4 ± 4.7	98.1 ± 6.5	106.7 ± 1.5
28.8	21.5		CC(C)c1cc2c(c(O)c1O)[C@@]13CCCC(C)(C)[C@@H]1C[C@@H]2OC3=O [Compound 2, carnosol]	5.9 ± 1.6	15.4 ± 2.6	29.5 ± 1.9	59.3 ± 4.2	86.1 ± 3.3	29.5 ± 3.1	53.2 ± 2	80.3 ± 1.3	20.5 ± 2.6	32 ± 4.8	63.3 ± 5.3	103 ± 5.9	110.5 ± 0.9
26.5			O=C1O[C@H]([C@@H](O)CO)C(O)=C1O [Vit. C, Vitamin C, reference compound]	6.1 ± 4.4	21.6 ± 2.2	43.8 ± 2.6	57.6 ± 5.4	89.1 ± 2.2								
20	> 100		CC(C)c1cc2c(c(O)c1O)[C@]13CO[C@H]2C[C@H]1C(C)(C)C[C@H](O)C3 [Compound 5, 2,11,12-trihydroxy-7,20-epoxy-8,11,13-abietatriene]	9.2 ± 5.8	23.8 ± 6.6	55.4 ± 2.7	72.6 ± 5.7	89.6 ± 1.3	13 ± 3.3	51.8 ± 2.2	91.3 ± 9.2	5.7 ± 3.8	4.9 ± 7.3	16.4 ± 5.4	25.6 ± 4	91.6 ± 2.3
			COc1cc(C(C)=O)ccc1O [Apocynin, reference compound]								92.9 ± 2.6					
29.6	18	232 to 233	CC(C)C1CC2C(CO)(CC(O)C(O)C2(C)C)c2c(O)cc(O)cc21 [Compound 1, 1,2,3,4,4α,9,10,10α-octahydro-(4α-hydroxyymethyl)-1,1-dimethyl-9-(1-methylethyl)-(2S,3S,4αR,9R,10αS)-2,3,5,7-phenanthrenetertrol]	16.6 ± 3.3	21.0 ± 1.8	39.2 ± 4.1	53.4 ± 8.2	75.4 ± 6.8	24.6 ± 2.4	56.1 ± 8.2	64.8 ± 5.2	18 ± 3.2	42.9 ± 2.5	68.9 ± 5.2	86.6 ± 4.9	97.3 ± 4.2
			CC(C)Cc1ccc(C(C)C(=O)O)cc1 (stereo not drawn) [ibuprofen, reference compound]											32.3 ± 4.2		
> 50	> 100		CC(C)c1cc(C=O)c2c(c1O)OC(=O)C1C(C)(C)CCC[C@]21C=O (stereo partly drawn) [Compound 4, saficinolide]	14.5 ± 2.9	15.2 ± 6.0	15.5 ± 1.3	7.0 ± 4.7	13.2 ± 1.5	8.1 ± 3.2	16.6 ± 4.4	47.1 ± 6.1	6.3 ± 2.4	11.9 ± 5.8	15.8 ± 4.4	28.7 ± 5.3	101.3 ± 5.0
